Where two headings read alike, the source gives them in different places.
Legend:
EL4 lymphoma cells = conditions: reported (prepared by total synthesis); cited from earlier work
EL4 mouse lymphoma = assay: Cytotoxicity of epoxyketones, CellTitre-Glo, 48 h; type: cell-based; conditions: EL4, 48 h
Protocol: (§1) Cytotoxicity Assays. Cancer cell lines (ATCC: U266 multiple myeloma, EL4 mouse lymphoma, Raji B-cell lymphoma) were cultured in Roswell Park Memorial Institute (RPMI) medium supplemented with 10% fetal bovine serum (FBS), 2 mM L-glutamine, 100 IU/mL penicillin, 100 μg/mL nonessential amino acids, 1 mM sodium pyruvate, and 57 μM β-mercaptoethanol. Cells (90 μL) were seeded in the inner 60 wells of an opaque-wall, clear flat-bottom 96-well plate (Corning/Falcon, 351177) at 20,000 cells per well. The outer perimeter wells were filled with 200 μL PBS to reduce evaporation in the central 60 wells. Epoxyketones 12 (20 mM in DMSO) were diluted in RPMI media to 1 mM (5% DMSO final concentration). Each epoxyketone was then diluted log-fold into 10 concentrations with 5% DMSO in RPMI. Each epoxyketone solution (10 μL) was added to the cells for a 0.5% DMSO final concentration across all wells and final epoxyketone concentrations of 100-0.005 μM. Negative control wells were treated with 10 μL of 5% DMSO in RPMI. Cells were incubated with compounds for 48 h, then cytotoxicity was measured with the CellTitre-Glo assay (Promega G9241).

U266 multiple myeloma = assay: Cytotoxicity of epoxyketones, CellTitre-Glo, 48 h; type: cell-based; conditions: Homo sapiens, U-266, U266, 48 h
Protocol: as §1

Raji B-cell lymphoma = assay: Cytotoxicity of epoxyketones, CellTitre-Glo, 48 h; type: cell-based; conditions: Homo sapiens
Protocol: as §1

[1] = test system: chymotrypsin-like activity of the proteasome, Jurkat cell lysates; assay: Proteasome inhibition assay (abcam Proteasome Activity Assay Kit); type: biochemical; conditions: 10 μM concentration, 1 h at 37° C.
Protocol: Epoxyketones 12 were analyzed for proteasome inhibition using a Proteasome Activity Assay Kit (abcam ab107921). The protocol was followed as described by the manufacturer, except that the proteasome sample supplied in the kit was diluted by 10-fold more than indicated in the manual to increase the number of samples that could be analyzed per kit. Thus, the supplied proteasome sample was resuspended in 100 μL ddH2O, then further diluted with 900 μL of the supplied assay buffer. The supplied proteasome inhibitor, MG-132 (benzyl [(2S)-4-methyl-1-{[(2S)-4-methyl-1-{[(2S)-4-methyl-1-oxopentan-2-yl]amino}-1-oxopentan-2-yl]amino}-1-oxopentan-2-yl]carbamate; structure illustrated below), was also diluted 10-fold to a working concentration of 1 mM in DMSO. The epoxyketones 12 and epoxomicin positive control (Selleck Chemicals) were also diluted to working stocks of 1 mM in DMSO. Proteasome samples (99 μL) were added to a white, opaque 96-well plate (PerkinElmer, OptiPlate-96) and treated with 1 μL of compound solutions (10 μM final concentration). Samples were incubated for 1 h at 37° C. then analyzed for fluorescence (λ^ex 350 nm, λ^em 440 nm) on a plate reader (Molecular Devices Spectramax M3). Three separate assay kits were used as biological replicates. Data were normalized to the average signal from the no-inhibitor negative control. […]

CC(C)CCCCC(=O)N[C@@H](CO)C(=O)N[C@@H](CC(C)C)C(=O)[C@@]1(C)CO1 [Compound 12a, N-[(1S)-2-Hydroxy-1-{[(2S)-4-methyl-1-[(2R)-2-methyloxiran-2-yl]-1-oxopentan-2-yl]carbamoyl}ethyl]-6-methylheptanamide]
IC50 (EL4 lymphoma cells): 260 ± 50 nM | IC50 (EL4 mouse lymphoma; read-out: IC50): 440 nM | IC50 (EL4 mouse lymphoma; read-out: log IC50 (converted)): 407 nM | IC50 (U266 multiple myeloma; read-out: IC50): 230 nM | IC50 (U266 multiple myeloma; read-out: log IC50 (converted)): 229 nM | IC50 (Raji B-cell lymphoma; read-out: IC50): 200 nM | IC50 (Raji B-cell lymphoma; read-out: log IC50 (converted)): 195 nM | inhibition of proteasome activity [1]: at a level comparable to that of epoxomicin

Source: patent publication US20260234116A1, “CYTOTOXIC EPOXYKETONE COMPOUNDS, PRECURSORS, COMPOSITIONS, AND METHODS OF USE” (Memorial Sloan-Kettering Cancer Center, priority 2023, published 2026)
